Structures can show the parent of a compound that is named as a salt.

This is an account of results in patent US20110306597A1, “Nicotinamide Derivatives” (priority 2008, published 2011).

T1 sequence (O60760 whole entry): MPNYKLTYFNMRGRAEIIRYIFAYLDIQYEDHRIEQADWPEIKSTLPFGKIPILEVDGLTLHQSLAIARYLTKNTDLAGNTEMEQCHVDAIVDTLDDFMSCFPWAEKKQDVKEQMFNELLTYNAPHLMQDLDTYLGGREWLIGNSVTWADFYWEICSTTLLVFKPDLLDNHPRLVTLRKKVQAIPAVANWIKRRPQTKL

The first assay has as its target T1, human recombinant H-PGDS (Homo sapiens, UniProt O60760). Put plainly: Slightly modified h-PGDS TBA enzyme assay (Examples 529, 565, 566, 574-588 and 591). The note with it: slightly modified assay (Examples 529, 565, 566, 574-588 and 591); 1:40,000 human recombinant H-PGDS. It counts as biochemical. The protocol:
Prostaglandin D Synthase (PGDS) converts the substrate prostaglandin H2 (PGH2) to prostaglandin D2. The depletion of PGH2 was measured via an Fe(II) reduction of the remaining PGH2 to malondialdehyde (MDA) and 12-HHT. The enzyme assay is based on the quantitative formation of a fluorescent complex from the non-fluorescent compounds MDA and 2-thiobarbituric acid (TBA), substantially as described in U.S. patent application publication US-2004/152148 by Lombardt.
Examples 529, 565, 566, 574-588 and 591 were tested in a slightly modified assay: The enzyme assay (30 μls during biological process) contained 100 mM Trizma pH 8.0, 100 μM MgCl2, 0.1 mg/ml IgG Rabbit serum, 5.0 μM PGH2 (Cayman; ethanol solution, #17020), 2.5 mM L-Glutathione (Sigma; reduced form #G4251), 1:40,000 human recombinant H-PGDS (from 1 mg/ml), 0.5% DMSO and inhibitor (varying concentration). 3 μls of diluted inhibitor (dissolved in DMSO) was plated into a 384-well assay plate followed by a 24 μl addition of an enzyme solution containing h-PGDS, Trizma, MgCl2, IgG and L-Glutathione. After pre-incubation of inhibitor and enzyme solution for 10 minutes at room temperature, the reaction was initiated with a 3 μl addition of substrate solution in 10 mM HCl. The reaction was terminated after 40 second by the addition of 3 μl stop buffer containing FeCl2 and citric acid. After addition of 45 μls of TBA plates were heated for one hour in a 70° C. oven. Plates were cooled at room temperature overnight and read on a plate reader the next day with excitation @ 530 nm and emission @ 560 nm. IC50's of inhibitors were calculated with a 4-parameter fit using 11 inhibitor concentrations in duplicate with ½ log serial dilutions. Controls on each plate included no inhibitor (zero % effect) and an inhibitor 500-fold in excess of its' IC50 (100% effect). The highest inhibitor concentration tested was typically 10 μM.
As a reminder, the IC50 is the midpoint of a concentration-inhibition curve. Turning to `O=C(N[C@H]1[C@@H]2CN(c3ncccn3)C[C@@H]21)c1ccc(-c2cccc(F)c2)nc1` [Example 529, 6-(3-Fluorophenyl)-N-[(1R,5S,6s)-3-pyrimidin-2-yl-3-azabicyclo[3.1.0]hex-6-yl]nicotinamide], the IC50 amounted to 11.3 nM.
Same read-out and setting: the figure for `CC(=O)N1CCC(CNC(=O)c2ccc(-c3cc(F)ccc3O)nc2)CC1` [Example 565, N-[(1-Acetylpiperidin-4-yl)methyl]-6-(5-fluoro-2-hydroxyphenyl)nicotinamide] is 114 nM; for `CCOCCNC(=O)c1ccc(-c2cc(F)ccc2O)nc1` [Example 566, N-(2-Ethoxyethyl)-6-(5-fluoro-2-hydroxyphenyl)nicotinamide] it is 349 nM.
The same measure, in the same setting: the figure for `O=C(NCCN1CCCC1)c1ccc(-c2cccc(F)c2)nc1` [Example 574, 6-(3-Fluorophenyl)-N-(2-pyrrolidin-1-ylethyl)nicotinamide] is 1200 nM.
For `O=C(NCCN1CCC(O)CC1)c1ccc(-c2cccc(F)c2)nc1` [Example 575, 6-(3-Fluorophenyl)-N-[2-(4-hydroxypiperidin-1-yl)ethyl]nicotinamide], the IC50 stood at 162 nM.
Still for that read-out and setting: for `CCCNC(=O)c1ccc(-c2cccc(F)c2)nc1` [Example 576, 6-(3-Fluorophenyl)-N-propylnicotinamide] the value was 93.4 nM; for `O=C(NCCO)c1ccc(-c2cccc(F)c2)nc1` [Example 577, 6-(3-Fluorophenyl)-N-(2-hydroxyethyl)nicotinamide], 275 nM; for `CNCCNC(=O)c1ccc(-c2cccc(F)c2)nc1` [Example 578, 6-(3-Fluorophenyl)-N-(2-(methylamino)ethyl)nicotinamide hydrochloride], 758 nM.
On to `O=C(NCC1CC1)c1ccc(-c2cccc(F)c2)nc1` [Example 579, N-(Cyclopropylmethyl)-6-(3-fluorophenyl)nicotinamide], for which the IC50 turned out to be 128 nM.
Still for that read-out and setting: for `CCNC(=O)c1ccc(-c2cccc(F)c2)nc1` [Example 580, N-Ethyl-6-(3-fluorophenyl)nicotinamide] the value was 222 nM.
On the same count and under the same terms, the figure for `O=C(O)CCNC(=O)c1ccc(-c2cccc(F)c2)nc1` [Example 581, N-{[6-(3-Fluorophenyl)pyridin-3-yl]carbonyl}-beta-alanine] is 197 nM.
Same read-out and setting: for `O=C(CCNC(=O)c1ccc(-c2cccc(F)c2)nc1)N[C@H]1CC[C@H](O)CC1` [Example 582, 6-(3-Fuorophenyl)-N-{3-[(trans-4-hydroxycyclohexyl)amino]-3-oxopropyl}nicotinamide] the value was 34.2 nM; for `CC(C)OCCNCCNC(=O)c1ccc(-c2cccc(F)c2)nc1` [Example 583, 6-(3-Fluorophenyl)-N-(2-(2-isopropoxyethylamino)ethyl)nicotinamide], 277 nM.

The target of a further assay is T1, human recombinant H-PGDS. The assay can be described thus: Fluorescence Intensity h-PGDS TBA Enzyme Assay. It is filed as biochemical. The note with it: 1:175,000 human recombinant H-PGDS, highest inhibitor concentration typically 1 μM. The gist of the method: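 Readout is PGH2 depletion: after a 42 s reaction with 5.0 μM PGH2 and 2.5 mM glutathione (pH 8.0 Tris, 10 min inhibitor preincubation), Fe(II) converts leftover PGH2 to MDA, which forms a fluorescent TBA complex. IC50s come from 11-point, 3-fold duplicate curves, 4-parameter fit.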
For the compound `O=C(N[C@@H]1C[C@H]2CC[C@@H](C1)N2C(=O)N1CCC(O)CC1)c1ccc(-c2cccc(F)c2)nc1` [Example 596, 6-(3-Fluorophenyl)-N-(3-exo)-8-[(4-hydroxypiperidin-1-ylcarbonyl]-8-azabicyclo[3.2.1]octyl-3-yl}nicotinamide], the half-inhibitory concentration (IC50) amounted to 11 nM.
Same read-out and setting: the figure for `O=C(N[C@@H]1C[C@H]2CC[C@@H](C1)N2C(=O)NCCO)c1ccc(-c2cccc(F)c2)nc1` [Example 597, (3-exo)-3-({[6-(3-Fluorophenyl)-pyridin-3-yl]carbonyl}amino)-N-(2-hydroxyethyl)-8-azabicyclo[3.2.1]octane-8-carboxamide] is 35 nM; for “N-(3-Fluorobenzyl)-6-(3- methylphenyl)nicotinamide [Example 238]” it is 38.9 nM; for “N-(4-Fluorophenyl)-6-(3- fluorophenyl)nicotinamide [Example 425]” it is 52.6 nM.
On the same count and under the same terms, the figure for “N-(4-Fluorophenyl)-6-(3- methoxyphenyl)nicotinamide [Example 307]” is 187 nM; for “N-[2-(Benzyloxy)ethyl]-5-chloro-6-(3-fluorophenyl)nicotinamide [Example 555]” it is 174 nM.
